Measurements taken from the NIST ThermoML archive (doi:10.1016/j.fluid.2015.12.055).
± gives the expanded uncertainty stated by the source.

Conditions: Liquid, Vibrating tube method

SMILES	mass density (273.15 K, 101.33 kPa) [kg/m3]	mass density (283.15 K, 101.33 kPa) [kg/m3]	mass density (293.15 K, 101.33 kPa) [kg/m3]	mass density (298.15 K, 101.33 kPa) [kg/m3]	mass density (303.15 K, 101.33 kPa) [kg/m3]	mass density (313.15 K, 101.33 kPa) [kg/m3]	mass density (313.15 K, 1999 kPa) [kg/m3]	mass density (313.15 K, 5000 kPa) [kg/m3]	mass density (323.15 K, 101.33 kPa) [kg/m3]	mass density (333.15 K, 101.33 kPa) [kg/m3]	mass density (343.15 K, 101.33 kPa) [kg/m3]	mass density (353.15 K, 101.33 kPa) [kg/m3]	mass density (363.15 K, 101.33 kPa) [kg/m3]	further results
CCn1cc[n+](C)c1.O=S(=O)([N-]S(=O)(=O)C(F)(F)C(F)(F)F)C(F)(F)C(F)(F)F	1621.64 ± 5.1	1610.4 ± 5.1	1599.21 ± 5	1593.65 ± 5	1588.12 ± 4.9	1577.13 ± 4.9	1579.57 ± 4.9	1582.86 ± 5	1566.23 ± 4.8	1555.4 ± 4.7	1544.63 ± 4.7	1533.92 ± 4.6	1523.27 ± 4.5	mass density (313.15 K, 497 kPa): 1577.9 ± 4.9 kg/m3; mass density (313.15 K, 1001 kPa): 1578.46 ± 4.9 kg/m3; mass density (313.15 K, 3003 kPa): 1580.67 ± 5 kg/m3; mass density (313.15 K, 4007 kPa): 1581.77 ± 5 kg/m3; mass density (313.15 K, 6004 kPa): 1583.94 ± 5 kg/m3
CCn1cc[n+](C)c1.O=S(=O)([O-])C(F)(F)C(F)(F)C(F)(F)C(F)(F)F				1546.54 ± 4.7	1541.24 ± 4.6	1530.71 ± 4.6		1534.99 ± 4.7	1520.31 ± 4.5	1510.01 ± 4.5	1499.78 ± 4.4	1489.64 ± 4.3	1479.58 ± 4.3	mass density (313.15 K, 510 kPa): 1530.15 ± 4.6 kg/m3; mass density (313.15 K, 1007 kPa): 1530.64 ± 4.6 kg/m3; mass density (313.15 K, 2007 kPa): 1531.73 ± 4.6 kg/m3; mass density (313.15 K, 3005 kPa): 1532.82 ± 4.7 kg/m3; mass density (313.15 K, 4004 kPa): 1533.91 ± 4.7 kg/m3; mass density (313.15 K, 5999 kPa): 1536.06 ± 4.7 kg/m3
CCn1cc[n+](C)c1.F[B-](F)(F)F [1-ethyl-3-methylimidazolium tetrafluoroborate]			1283.53 ± 1.5	1279.7 ± 1.5	1275.89 ± 1.5	1268.33 ± 1.4			1260.85 ± 1.4	1253.45 ± 1.4	1246.11 ± 1.4	1238.83 ± 1.4	1231.6 ± 1.3	mass density (313.15 K, 503 kPa): 1268.82 ± 1.4 kg/m3; mass density (313.15 K, 999 kPa): 1269.09 ± 1.4 kg/m3; mass density (313.15 K, 2001 kPa): 1269.74 ± 1.5 kg/m3; mass density (313.15 K, 2998 kPa): 1270.26 ± 1.5 kg/m3; mass density (313.15 K, 4000 kPa): 1270.93 ± 1.5 kg/m3; mass density (313.15 K, 5002 kPa): 1271.59 ± 1.5 kg/m3; mass density (313.15 K, 6000 kPa): 1272.21 ± 1.5 kg/m3
CCn1cc[n+](C)c1.O=S(=O)([N-]S(=O)(=O)C(F)(F)F)C(F)(F)F	1544.43 ± 4.7	1534.1 ± 4.6	1523.89 ± 4.5	1518.83 ± 4.5	1513.78 ± 4.5	1503.75 ± 4.4	1505.7 ± 4.5		1493.8 ± 4.4	1483.92 ± 4.3	1474.1 ± 4.2	1464.36 ± 4.2	1454.67 ± 4.1	mass density (313.15 K, 508 kPa): 1504.27 ± 4.4 kg/m3; mass density (313.15 K, 1002 kPa): 1504.75 ± 4.4 kg/m3; mass density (313.15 K, 3001 kPa): 1506.65 ± 4.5 kg/m3; mass density (313.15 K, 3997 kPa): 1507.6 ± 4.5 kg/m3; mass density (313.15 K, 5001 kPa): 1508.55 ± 4.5 kg/m3; mass density (313.15 K, 6005 kPa): 1509.49 ± 4.6 kg/m3
